Test results from patent publication US20170065564A1, “BIS-CYCLIC GUANIDINE COMPOUND COMPOSITIONS, METHODS OF USE AND TREATMENT THEREOF” (University of South Florida, priority 2014, published 2017).
Values after ≈ are worked out from the molar mass of the structure shown.

Assays:
ESKAPE pathogens = test: MIC micro broth dilution assay, statements and stacked scores over all ESKAPE pathogens; type: cell-based
Summary of the method: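 Overnight cultures of multidrug-resistant clinical isolates, diluted 1 in 1,000 (Gram-positives in TSB, Gram-negatives in LB), were exposed to decreasing compound concentrations in DMF (≤2.0%) at 37° C. MIC was read visually as no turbidity after 24 hours, in triplicate. Broad-spectrum activity was ranked by stacked scores.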

Pseudomonas aeruginosa = test: MIC micro broth dilution assay; type: cell-based
Summary of the method: (§1)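 Strains were multidrug-resistant clinical isolates grown in LB (Gram-negative) or TSB (Gram-positive), diluted 1:1,000 before compound addition.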

Klebsiella pneumoniae = test: MIC micro broth dilution assay; type: cell-based; design: key to stacked score activity, 100/MIC, K: stacked score = 100/MIC
Summary of the method: as §1

Enterococcus faecium = test: MIC micro broth dilution assay; type: cell-based; design: key to stacked score activity, 100/MIC, E: stacked score = 100/MIC
Summary of the method: as §1

Enterobacter cloacae = test: MIC micro broth dilution assay; type: cell-based; design: key to stacked score activity, 100/MIC, E: stacked score = 100/MIC
Summary of the method: as §1

Staphylococcus aureus = test: MIC micro broth dilution assay; type: cell-based; design: key to stacked score activity, 100/MIC, S: stacked score = 100/MIC
Summary of the method: as §1

K. pneumoniae = test: Resistance serial passage assay; type: cell-based, Klebsiella pneumoniae; conditions: 8 passages, concentration doubled each day
Summary of the method: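 Cultures were diluted 1:100 and exposed to compound starting at half MIC, incubated 24 h at 37 °C. Each day, cells were passaged 1:100 into fresh media with compound at 2-fold higher concentration, for eight days in total. Run in triplicate.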

Acinetobacter baumannii = test: MIC micro broth dilution assay; type: cell-based; design: key to stacked score activity, 100/MIC, A: stacked score = 100/MIC
Summary of the method: as §1

[1] = panel of K. pneumoniae clinical isolates
[2] = panel of E. cloacae clinical isolates

## CCCCCCCN1C(=N)N(CCCC[C@H]2CNC(=N)N2CCC23CC4CC(CC(C4)C2)C3)C[C@@H]1CCCC [Compound 19]
ESKAPE pathogens; dose 4 ug/ml, letters E,S,K,A,P,E = ESKAPE pathogens, — = none
  pathogens against which the compound showed activity at 4 ug/ml: ESAP
ESKAPE pathogens; dose 5 ug/ml, letters E,S,K,A,P,E = ESKAPE pathogens, — = none
  pathogens against which the compound showed activity at 5 ug/ml: ESKAPE
ESKAPE pathogens; dose 10 ug/ml, letters E,S,K,A,P,E = ESKAPE pathogens, — = none
  pathogens against which the compound showed activity at 10 ug/ml: ESKAPE
ESKAPE pathogens; dose 25 ug/ml, letters E,S,K,A,P,E = ESKAPE pathogens, — = none
  pathogens against which the compound showed activity at 25 ug/ml: ESKAPE
ESKAPE pathogens; stacked score over all ESKAPE pathogens (details in Table S4b)
  stacked score Total: 156
ESKAPE pathogens; sum over all six ESKAPE pathogens
  Total stacked score: 156
Pseudomonas aeruginosa; P. aeruginosa isolate 1414
  MIC: 5.0 µM (≈ 2.7 µg/mL)
Pseudomonas aeruginosa; P. aeruginosa isolate 1415
  MIC: 5.0 µM (≈ 2.7 µg/mL)
Pseudomonas aeruginosa; P. aeruginosa isolate 1416
  MIC: 3.0 µM (≈ 1.62 µg/mL)
Pseudomonas aeruginosa; P. aeruginosa isolate 1417
  MIC: 3.0 µM (≈ 1.62 µg/mL)
Pseudomonas aeruginosa; P. aeruginosa isolate 1418
  MIC: 7.0 µM (≈ 3.79 µg/mL)
Pseudomonas aeruginosa; P. aeruginosa isolate 1419
  MIC: 3.0 µM (≈ 1.62 µg/mL)
Pseudomonas aeruginosa; P. aeruginosa isolate 1420
  MIC: 5.0 µM (≈ 2.7 µg/mL)
Pseudomonas aeruginosa; P. aeruginosa isolate 1421
  MIC: 5.0 µM (≈ 2.7 µg/mL)
Pseudomonas aeruginosa; P. aeruginosa isolate 1422
  MIC: 5.0 µM (≈ 2.7 µg/mL)
Pseudomonas aeruginosa; P. aeruginosa isolate 1423
  MIC: 2.0 µM (≈ 1.08 µg/mL)
Pseudomonas aeruginosa; panel of P. aeruginosa clinical isolates
  concentration inhibiting 90% of isolates: 10 µM
Pseudomonas aeruginosa; purified compound, Table 1
  MIC: 1.66 µM (≈ 0.898 µg/mL)
Klebsiella pneumoniae; K. pneumoniae
  stacked score activity, 100/MIC, K: 20
Klebsiella pneumoniae; K. pneumoniae isolate 1408
  MIC: 2.0 µM (≈ 1.08 µg/mL)
Klebsiella pneumoniae; K. pneumoniae isolate 1409
  MIC: 3.0 µM (≈ 1.62 µg/mL)
Klebsiella pneumoniae; K. pneumoniae isolate 1410
  MIC: 3.0 µM (≈ 1.62 µg/mL)
Klebsiella pneumoniae; K. pneumoniae isolate 1411
  MIC: 2.0 µM (≈ 1.08 µg/mL)
Klebsiella pneumoniae; K. pneumoniae isolate 1412
  MIC: 3.0 µM (≈ 1.62 µg/mL)
Klebsiella pneumoniae; K. pneumoniae isolate 1413
  MIC: 3.0 µM (≈ 1.62 µg/mL)
Klebsiella pneumoniae; K. pneumoniae isolate 1433
  MIC: 2.0 µM (≈ 1.08 µg/mL)
Klebsiella pneumoniae; K. pneumoniae isolate 1434
  MIC: 5.0 µM (≈ 2.7 µg/mL)
Klebsiella pneumoniae; K. pneumoniae isolate 1440
  MIC: 3.0 µM (≈ 1.62 µg/mL)
Klebsiella pneumoniae; K. pneumoniae isolate 1441
  MIC: 2.0 µM (≈ 1.08 µg/mL)
Klebsiella pneumoniae; [1]
  concentration inhibiting 70% of strains: 2 µM
  concentration inhibiting 90% of isolates: 5 µM
Klebsiella pneumoniae; purified compound, Table 1
  MIC: 1.66 µM (≈ 0.898 µg/mL)
Enterococcus faecium; E. faecium
  stacked score activity, 100/MIC, E: 33
Enterococcus faecium; E. faecium isolate 1406
  MIC: 2.0 µM (≈ 1.08 µg/mL)
Enterococcus faecium; E. faecium isolate 1407
  MIC: 2.0 µM (≈ 1.08 µg/mL)
Enterococcus faecium; E. faecium isolate 1432
  MIC: 2.0 µM (≈ 1.08 µg/mL)
Enterococcus faecium; E. faecium isolate 1438
  MIC: 2.0 µM (≈ 1.08 µg/mL)
Enterococcus faecium; E. faecium isolate 1439
  MIC: 2.0 µM (≈ 1.08 µg/mL)
Enterococcus faecium; E. faecium isolate 1443
  MIC: 2.0 µM (≈ 1.08 µg/mL)
Enterococcus faecium; E. faecium isolate 1444
  MIC: 2.0 µM (≈ 1.08 µg/mL)
Enterococcus faecium; E. faecium isolate 1449
  MIC: 2.0 µM (≈ 1.08 µg/mL)
Enterococcus faecium; E. faecium isolate 1450
  MIC: 2.0 µM (≈ 1.08 µg/mL)
Enterococcus faecium; E. faecium isolate 1451
  MIC: 2.0 µM (≈ 1.08 µg/mL)
Enterococcus faecium; purified compound, Table 1
  MIC: 1.66 µM (≈ 0.898 µg/mL)
Enterobacter cloacae; E. cloacae
  stacked score activity, 100/MIC, E: 20
Enterobacter cloacae; E. cloacae isolate 1404
  MIC: 2.0 µM (≈ 1.08 µg/mL)
Enterobacter cloacae; E. cloacae isolate 1405
  MIC: 2.0 µM (≈ 1.08 µg/mL)
Enterobacter cloacae; E. cloacae isolate 1430
  MIC: 3.0 µM (≈ 1.62 µg/mL)
Enterobacter cloacae; E. cloacae isolate 1431
  MIC: 2.0 µM (≈ 1.08 µg/mL)
Enterobacter cloacae; E. cloacae isolate 1445
  MIC: 3.0 µM (≈ 1.62 µg/mL)
Enterobacter cloacae; E. cloacae isolate 1446
  MIC: 5.0 µM (≈ 2.7 µg/mL)
Enterobacter cloacae; E. cloacae isolate 1447
  MIC: 2.0 µM (≈ 1.08 µg/mL)
Enterobacter cloacae; E. cloacae isolate 1448
  MIC: 2.0 µM (≈ 1.08 µg/mL)
Enterobacter cloacae; E. cloacae isolate 1454
  MIC: 2.0 µM (≈ 1.08 µg/mL)
Enterobacter cloacae; E. cloacae isolate 1455
  MIC: 2.0 µM (≈ 1.08 µg/mL)
Enterobacter cloacae; [2]
  concentration inhibiting 70% of strains: 2 µM
  concentration inhibiting 90% of isolates: 5 µM
Enterobacter cloacae; purified compound, Table 1
  MIC: 1.66 µM (≈ 0.898 µg/mL)
Staphylococcus aureus; S. aureus
  stacked score activity, 100/MIC, S: 33
Staphylococcus aureus; S. aureus isolate 542
  MIC: 2.0 µM (≈ 1.08 µg/mL)
Staphylococcus aureus; S. aureus isolate 626
  MIC: 2.0 µM (≈ 1.08 µg/mL)
Staphylococcus aureus; S. aureus isolate 635
  MIC: 2.0 µM (≈ 1.08 µg/mL)
Staphylococcus aureus; S. aureus isolate 648
  MIC: 2.0 µM (≈ 1.08 µg/mL)
Staphylococcus aureus; S. aureus isolate 690
  MIC: 2.0 µM (≈ 1.08 µg/mL)
Staphylococcus aureus; S. aureus isolate 693
  MIC: 2.0 µM (≈ 1.08 µg/mL)
Staphylococcus aureus; S. aureus isolate 715
  MIC: 2.0 µM (≈ 1.08 µg/mL)
Staphylococcus aureus; S. aureus isolate 728
  MIC: 2.0 µM (≈ 1.08 µg/mL)
Staphylococcus aureus; S. aureus isolate 834
  MIC: 2.0 µM (≈ 1.08 µg/mL)
Staphylococcus aureus; S. aureus isolate 1043
  MIC: 2.0 µM (≈ 1.08 µg/mL)
Staphylococcus aureus; S. aureus isolate 1049
  MIC: 2.0 µM (≈ 1.08 µg/mL)
Staphylococcus aureus; purified compound, Table 1
  MIC: 1.66 µM (≈ 0.898 µg/mL)
K. pneumoniae
  increase in MIC after serial passage: 8 fold
Acinetobacter baumannii; A. baumannii
  stacked score activity, 100/MIC, A: 25
Acinetobacter baumannii; A. baumannii isolate 1403
  MIC: 2.0 µM (≈ 1.08 µg/mL)
Acinetobacter baumannii; A. baumannii isolate 1643
  MIC: 2.0 µM (≈ 1.08 µg/mL)
Acinetobacter baumannii; A. baumannii isolate 1644
  MIC: 2.0 µM (≈ 1.08 µg/mL)
Acinetobacter baumannii; A. baumannii isolate 1647
  MIC: 2.0 µM (≈ 1.08 µg/mL)
Acinetobacter baumannii; A. baumannii isolate 1648
  MIC: 2.0 µM (≈ 1.08 µg/mL)
Acinetobacter baumannii; A. baumannii isolate 1649
  MIC: 2.0 µM (≈ 1.08 µg/mL)
Acinetobacter baumannii; A. baumannii isolate 1650
  MIC: 2.0 µM (≈ 1.08 µg/mL)
Acinetobacter baumannii; A. baumannii isolate 1651
  MIC: 2.0 µM (≈ 1.08 µg/mL)
Acinetobacter baumannii; A. baumannii isolate 1653
  MIC: 2.0 µM (≈ 1.08 µg/mL)
Acinetobacter baumannii; A. baumannii isolate 1654
  MIC: 2.0 µM (≈ 1.08 µg/mL)
Acinetobacter baumannii; purified compound, Table 1
  MIC: 1.66 µM (≈ 0.898 µg/mL)
